# Source: article PMC9848300, “Discovery of novel enasidenib analogues targeting inhibition of mutant isocitrate dehydrogenase 2 as antileukaemic agents” (Journal of Enzyme Inhibition and Medicinal Chemistry, 2023)
# Like-named read-outs stand apart in the source and are kept apart here.
# What was measured:
# [1] = system: SF-295; experiment: NCI 60 antitumor screening (single dose / five doses); type: cell-based; conditions: Homo sapiens
# [2] = system: SK-MEL-28; experiment: as above; type: cell-based; conditions: Homo sapiens
# [3] = system: PC-3; experiment: NCI 60 antitumor screening (single dose); type: cell-based; conditions: Homo sapiens; PC-3 (prostate cancer), single dose 10 μM; read-out: Growth inhibition percentage (GI %)
# Summary of the method: (§1)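 Percent growth inhibition, calculated as 100 minus percent growth (G%) of treated cells, following a single 10 μM exposure in the NCI 60 human cancer cell screen; triplicate runs.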
# [4] = system: OVCAR-4; experiment: NCI 60 antitumor screening (single dose); type: cell-based; conditions: Homo sapiens; OVCAR-4 (ovarian cancer), single dose 10 μM; read-out: Growth inhibition percentage (GI %)
# Summary of the method: as §1
# [5] = system: NCI-H23; experiment: NCI 60 antitumor screening (single dose); type: cell-based; conditions: Homo sapiens; NCI-H23 (non-small cell lung cancer), single dose 10 μM; read-out: Growth inhibition percentage (GI %)
# Summary of the method: (§2)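 Compounds were tested at a single 10 μM dose against the NCI 60-cell-line panel (nine tumour types), in triplicate. Growth was recorded as percent growth (G%) of treated cells, and growth inhibition was taken as GI% = 100 − G%.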
# [6] = system: OVCAR-5; experiment: NCI 60 antitumor screening (single dose); type: cell-based; conditions: Homo sapiens; OVCAR-5 (ovarian cancer), single dose 10 μM; read-out: Growth inhibition percentage (GI %)
# Summary of the method: as §2
# [7] = system: SK-OV-3; experiment: NCI 60 antitumor screening (single dose); type: cell-based; conditions: Homo sapiens; SK-OV-3 (ovarian cancer), single dose 10 μM; read-out: Growth inhibition percentage (GI %)
# Summary of the method: as §2
# [8] = system: NCI-H322M; experiment: NCI 60 antitumor screening (single dose); type: cell-based; conditions: Homo sapiens; NCI-H322M (non-small cell lung cancer), single dose 10 μM; read-out: Growth inhibition percentage (GI %)
# Summary of the method: as §1
# [9] = system: SF-268; experiment: NCI 60 antitumor screening (single dose); type: cell-based; conditions: Homo sapiens; SF-268 (CNS cancer), single dose 10 μM; read-out: Growth inhibition percentage (GI %)
# Summary of the method: as §2
# [10] = system: NCI-H226; experiment: NCI 60 antitumor screening (single dose); type: cell-based; conditions: Homo sapiens; NCI-H226 (non-small cell lung cancer), single dose 10 μM; read-out: Growth inhibition percentage (GI %)
# Summary of the method: as §1
# [11] = system: NCI-H460; experiment: NCI 60 antitumor screening (single dose); type: cell-based; conditions: Homo sapiens; NCI-H460 (non-small cell lung cancer), single dose 10 μM; read-out: Growth inhibition percentage (GI %)
# Summary of the method: as §2
# [12] = system: A549/ATCC; experiment: NCI 60 antitumor screening (single dose); type: cell-based; conditions: Homo sapiens; A549/ATCC (non-small cell lung cancer), single dose 10 μM; read-out: Growth inhibition percentage (GI %)
# Summary of the method: as §1
# [13] = system: NCI-H522; experiment: NCI 60 antitumor screening (single dose); type: cell-based; conditions: Homo sapiens; NCI-H522 (non-small cell lung cancer), single dose 10 μM; read-out: Growth inhibition percentage (GI %)
# Summary of the method: as §2
# [14] = system: HOP-62; experiment: NCI 60 antitumor screening (single dose); type: cell-based; conditions: Homo sapiens; HOP-62 (non-small cell lung cancer), single dose 10 μM; read-out: Growth inhibition percentage (GI %)
# Summary of the method: as §2
# [15] = system: MCF7; experiment: NCI 60 antitumor screening (single dose); type: cell-based; conditions: Homo sapiens; MCF7 (breast cancer), single dose 10 μM; read-out: Growth inhibition percentage (GI %)
# Summary of the method: as §1
# [16] = system: SNB-19; experiment: NCI 60 antitumor screening (single dose); type: cell-based; conditions: Homo sapiens; SNB-19 (CNS cancer), single dose 10 μM; read-out: Growth inhibition percentage (GI %)
# Summary of the method: as §1
# [17] = system: OVCAR-3; experiment: NCI 60 antitumor screening (single dose); type: cell-based; conditions: Homo sapiens; OVCAR-3 (ovarian cancer), single dose 10 μM; read-out: Growth inhibition percentage (GI %)
# Summary of the method: as §1
# [18] = system: HCC-2998; experiment: NCI 60 antitumor screening (single dose); type: cell-based; conditions: Homo sapiens; HCC-2998 (colon cancer), single dose 10 μM; read-out: Growth inhibition percentage (GI %)
# Summary of the method: as §2
# [19] = system: U251; experiment: NCI 60 antitumor screening (single dose); type: cell-based; conditions: Homo sapiens, U-251; U251 (CNS cancer), single dose 10 μM; read-out: Growth inhibition percentage (GI %)
# Summary of the method: as §2
# [20] = system: KM 12; experiment: NCI 60 antitumor screening (single dose); type: cell-based; conditions: Homo sapiens, KM12; KM 12 (colon cancer), single dose 10 μM; read-out: Growth inhibition percentage (GI %)
# Summary of the method: as §1
# [21] = system: OVCAR-8; experiment: NCI 60 antitumor screening (single dose); type: cell-based; conditions: Homo sapiens; OVCAR-8 (ovarian cancer), single dose 10 μM; read-out: Growth inhibition percentage (GI %)
# Summary of the method: as §1
# [22] = system: CAKI-1; experiment: NCI 60 antitumor screening (single dose); type: cell-based; conditions: Homo sapiens; CAKI-1 (renal cancer), single dose 10 μM; read-out: Growth inhibition percentage (GI %)
# Summary of the method: as §1
# [23] = system: RXF 393; experiment: NCI 60 antitumor screening (single dose / five doses); type: cell-based; conditions: Homo sapiens
# [24] = system: IGROV1; experiment: as above; type: cell-based; conditions: Homo sapiens
# [25] = system: DU-145; experiment: as above; type: cell-based; conditions: Homo sapiens
# [26] = system: SW-620; experiment: as above; type: cell-based, human; conditions: Homo sapiens
# [27] = SF-295 (CNS cancer), single dose 10 μM, read-out: Growth inhibition percentage (GI %)
# [28] = SK-MEL-28 (melanoma), single dose 10 μM, read-out: Growth inhibition percentage (GI %)
# [29] = RXF 393 (renal cancer), single dose 10 μM, read-out: Growth inhibition percentage (GI %)
# [30] = IGROV-1, IGROV1 (ovarian cancer), single dose 10 μM, read-out: Growth inhibition percentage (GI %)
# [31] = DU-145 (prostate cancer), single dose 10 μM, read-out: Growth inhibition percentage (GI %)
# [32] = SW-620 (colon cancer), single dose 10 μM, read-out: Growth inhibition percentage (GI %)
# [33] = SF-295, read-out: Growth inhibition percentage (GI %)
# [34] = SK-MEL-28, read-out: Growth inhibition percentage (GI %)
# [35] = RXF 393, read-out: Growth inhibition percentage (GI %)
# [36] = IGROV-1, read-out: Growth inhibition percentage (GI %)
# [37] = DU-145, read-out: Growth inhibition percentage (GI %)
# [38] = SW-620, read-out: Growth inhibition percentage (GI %)
Compound,inhibition at 10 µM [3],inhibition at 10 µM [4],inhibition at 10 µM [5],inhibition at 10 µM [6],inhibition at 10 µM [7],inhibition at 10 µM [8],inhibition at 10 µM [9],inhibition at 10 µM [10],inhibition at 10 µM [11],inhibition at 10 µM [12],inhibition at 10 µM [13],inhibition at 10 µM [14],inhibition at 10 µM [15],inhibition at 10 µM [16],inhibition at 10 µM [17],inhibition at 10 µM [18],inhibition at 10 µM [19],inhibition at 10 µM [20],inhibition at 10 µM [21],inhibition at 10 µM [22],also measured
"Fc1cccc(/C=N/Nc2nc(N/N=C/c3cccc(F)c3)nc(N3CCCCC3)n2)c1 [compound 7e, 2,4-Bis[(E)-2-[(3-Fluorophenyl)methylidene]hydrazin-1-yl]-6-(piperidin-1-yl)-1,3,5-triazine]",31.4%,13.7%,9.62%,-8.1%,-14.6%,-8.36%,0.36%,17.9%,8.63%,10.6%,8.08%,-7.48%,26.7%,3.96%,10.6%,0.77%,5.46%,17.9%,14.6%,9.66%,"inhibition at 10 µM [1, 27]: 15.6%; inhibition at 10 µM [2, 28]: 9.32%; inhibition at 10 µM [23, 29]: -12.5%; inhibition at 10 µM [24, 30]: 9.61%; inhibition at 10 µM [25, 31]: 2.92%; inhibition at 10 µM [26, 32]: -7.5%"
"O=[N+]([O-])c1cccc(/C=N/Nc2nc(N/N=C/c3cccc([N+](=O)[O-])c3)nc(N3CCCCC3)n2)c1 [compound 7f, 2,4-Bis[(E)-2-[(3-Nitrophenyl)methylidene]hydrazin-1-yl]-6-(piperidin-1-yl)-1,3,5-triazine]",51.4%,32.3%,37.8%,-13%,-14.3%,13.8%,24.3%,42.6%,31.3%,39.3%,58.1%,41.5%,38.7%,11.5%,44.4%,5.6%,28.6%,35.2%,48.9%,27.6%,"inhibition at 10 µM [1, 33]: 28.3%; inhibition at 10 µM [2, 34]: 31.4%; inhibition at 10 µM [23, 35]: -3.98%; inhibition at 10 µM [24, 36]: 51.3%; inhibition at 10 µM [25, 37]: 29.8%; inhibition at 10 µM [26, 38]: 16.5%"
"CN(C)c1ccc(/C=N/Nc2nc(N/N=C/c3ccc(N(C)C)cc3)nc(N3CCCCC3)n2)cc1 [compound 7g, 4-[(1e)-(2-{4-[(E)-2-{[4-(dimethylamino)phenyl]methylidene}chydrazin-1-yl]-6-(piperidin-1-yl)-1,3,5-triazin-2-yl}hydrazin-1-ylidene)methyl]-N,N-dimethylaniline]",15.2%,-6.05%,3.27%,3.87%,-31.8%,-0.12%,-5.33%,-1.93%,29.1%,21.6%,3.84%,18.2%,68.9%,13.9%,34.4%,-3.1%,50%,6.98%,43.4%,10.1%,"inhibition at 10 µM [1, 27]: -6.74%; GI50 ([1]; SF-295, five doses (0.01–100 μM), read-out: GI50): 1960 nM; inhibition at 10 µM [2, 28]: 58.3%; GI50 ([2]; SK-MEL-28, five doses (0.01–100 μM), read-out: GI50): 2000 nM; inhibition at 10 µM [23, 29]: 6.71%; GI50 ([23]; RXF 393, five doses (0.01–100 μM), read-out: GI50): 2120 nM; inhibition at 10 µM [24, 30]: 6.23%; GI50 ([24]; IGROV-1, IGROV1, five doses (0.01–100 μM), read-out: GI50): 2960 nM; inhibition at 10 µM [25, 31]: 22.5%; GI50 ([25]; DU-145, five doses (0.01–100 μM), read-out: GI50): 3920 nM; GI50 ([26]; SW-620, SW-620, five doses (0.01–100 μM), read-out: GI50): 1890 nM; inhibition at 10 µM [26, 32]: 35.8%"
"Clc1cccc(/C=N/Nc2nc(N/N=C/c3cccc(Cl)c3Cl)nc(N3CCCCC3)n2)c1Cl [compound 7h, 2,4-Bis[(E)-2-[(2,3-Dichlorophenyl)methylidene]hydrazin-1-yl]-6-(piperidin-1-yl)-1,3,5-triazine]",29.9%,28.6%,0.28%,6.05%,-5.17%,10%,13.6%,2.51%,66.2%,44.4%,23.4%,1.81%,28.8%,4.59%,91.8%,2.64%,47.1%,32.8%,27.1%,15.9%,"inhibition at 10 µM [1, 27]: 7.34%; inhibition at 10 µM [2, 28]: 5.78%; inhibition at 10 µM [23, 29]: -11.8%; inhibition at 10 µM [24, 30]: 20.4%; inhibition at 10 µM [25, 31]: 26.6%; inhibition at 10 µM [26, 32]: 57.4%"
"O=[N+]([O-])c1cc(/C=N/Nc2nc(N/N=C/c3ccc(Cl)c([N+](=O)[O-])c3)nc(N3CCCCC3)n2)ccc1Cl [compound 7i, 2,4-Bis[(E)-2-[(4-Chloro-3-nitrophenyl)methylidene]hydrazin-1-yl]-6-(piperidin-1-yl)-1,3,5-triazine]",46.6%,13.1%,18.2%,-8.09%,1.24%,28.8%,35.1%,38.6%,1.33%,-11.2%,48.1%,56.3%,99.1%,27.4%,107%,32.6%,81.5%,94.5%,69%,27.6%,"inhibition at 10 µM [1, 33]: 6.78%; inhibition at 10 µM [2, 34]: 22.2%; inhibition at 10 µM [23, 35]: 0.13%; inhibition at 10 µM [24, 36]: 47.2%; inhibition at 10 µM [25, 37]: 70.4%; inhibition at 10 µM [26, 38]: 36.3%"
